US8530491B2, “Antimalarial compounds with flexible side-chains” (Medicines for Malaria Venture (MMV), priority 2007, dated 2013)
Values after ≈ are worked out from the molar mass of the structure shown. Read-outs that look alike come from different tables or passages of the source.

Tests used:
[1] = system: P. falciparum TM4/8.2 (wild type); assay: In vitro anti-plasmodial activity, [3H]-hypoxanthine incorporation; type: cell-based, Plasmodium falciparum
[2] = Cytotoxicity in mammalian cells; type: cell-based; details: African green monkey, Vero cells (African green monkey kidney epithelial cells)
P. chabaudi AS [3] = assay: Standard 4-day Peters' test against P. chabaudi AS in mice; type: in vivo, Plasmodium chabaudi; details: for ED50 / ED90: Plasmodium chabaudi, 96 h, oral, 4-day Peters' test; for ED50: 50% reduction in parasitaemia; for ED90: 90% reduction in parasitaemia; for ED90 P. chabaudi AS, oral: oral administration, mice (Table 1)
Experimental: (§1) Briefly, 20 gr CD1 male mice (Charles Rivers, UK) were kept in specific pathogen-free conditions and fed ad libitum. For oral administration, compounds were dissolved in standard suspending formula (SSV) [0.5% sodium carboxymethylcellulose, 0.5% benzyl alcohol, 0.4% Tween 80, 0.9% NaCl (all Sigma)] and for intraperitoneal or subcutaneous administration compounds were dissolved in 0.5% w/v hydroxypropylmethylcellulose, 0.4% v/v Tween 80, 0.5% V/v benzyl alcohol in de-ionised water]. Mice were infected intravenously with 4×10^6 infected red cells and treated orally (p.o.) with 0.2 ml of a solution of the test compounds two hours (day 0) and on days 1, 2 and 3 post-infection. Parasitaemia was determined by microscopic examination of Giemsa stained blood films taken on day 4. Microscopic counts of blood films from each mouse were processed using GraphPad Prism 4 (GraphPad Software, Inc., CA, USA) and expressed as percentages of inhibition from the arithmetic mean parasitaemias of each group in relation to the untreated group. Compounds were tested in an initial screening at 30 mg/kg/day against P. chabaudi AS (non-resistant) over the period described and percentages of inhibition calculated in relation to the untreated controls. Compounds giving 80% inhibition or above were then tested in the same model under a range of doses over the period described in order to obtain dose response curves and calculate their ED50 and ED90 values. […] From the ED90 values is clear that a number of compounds have exquisite activity in this model and are also tested in P. chabaudi ASP and P. berghei ANKA.

S. aureus = assay: Antibacterial activity, minimal inhibitory concentration on agar plates; type: cell-based; details: Staphylococcus aureus; complete inhibition of growth on agar plates
[4] = Oral bioavailability and pharmacokinetics in male Sprague Dawley rats; type: in vivo; details: for Oral BA: i.v. and oral dosing; for Vd / clearance / half-life: rat, plasma; for Vd: intravenous; for clearance / half-life: iv, i.v. dosing; for clearance: read-out: i.v. CL(plasma); for half-life: read-out: i.v. t1/2 (converted)
Experimental: Rats had free access to water throughout the pre- and post-dose sampling period, and access to food was re-instated 4 hours post-dosing. Test compounds were administered intravenously as a 5 minute constant rate infusion (1.0 mL per rat) and orally by gavage (1.0 mL per rat). The IV formulations were typically buffered aqueous solutions containing a co-solvent if required for solubilization. The oral formulations were prepared as suspensions in hydroxypropylmethyl cellulose or carboxymethyl cellulose, each with the addition of Tween 80 and benzyl alcohol. Samples of arterial blood and total urine were collected up to 24 hours post-dose. Arterial blood was collected directly into borosilicate vials (at 4° C.) containing heparin, a protease inhibitor cocktail, potassium fluoride, and EDTA to minimise the potential for ex vivo degradation of the test compound in blood/plasma samples. Once collected, blood samples were centrifuged, supernatant plasma was removed and stored at −20° C., and plasma concentrations of test compound were determined by LCMS.

E. coli = assay: Antibacterial activity, minimal inhibitory concentration on agar plates; type: cell-based; details: Escherichia coli; complete inhibition of growth on agar plates
Pf DHFR WT = target: T1, Pf DHFR WT (Plasmodium falciparum, UniProt A7UD81); assay: Pf DHFR enzyme inhibition (Ki), wild type; type: biochemical
T1 construct: made in house; host or cells: E. coli BL21(DE3)pLysS

[5] = target: T2, Pf DHFR N51I + C59R + S108N + I164L (Plasmodium falciparum, UniProt A7UD81, C59R/I164L/N51I/S108N); assay: biochemical
T2 construct: made in house; host or cells: E. coli BL21(DE3)pLysS

[6] = Pharmacokinetics of P218 / pro-drug P195 in male Swiss outbred mice; type: in vivo
Experimental: In a separate study, the oral bioavailability of P195, the ester pro-drug of P218 which contains a carboxylic acid side chain was investigated in mice. Male Swiss outbred mice were administered P218 (the free acid) intravenously by bolus tail vein injection at a nominal dose of 5 mg/kg and P195 (the ester pro-drug) orally by gavage at a nominal dose of 20 mg/kg. […] Blood sampling was conducted by cardiac puncture with a single sample per mouse, and two mice per time point over 16 hours post dosing. Blood samples were separated and plasma analyzed by LCMS as described above. The plasma concentration versus time profiles for P218 following IV administration of P218 and following oral administration of the pro-drug P195 are shown in FIG. 9. Plasma concentrations of P218 remained above the lower limit of quantitation (LLQ=0.0014 μM) for 7.5 h following IV administration.

[7] = system: P. falciparum Resistant mutant; assay: Anti-malarial activity against P. falciparum in vitro, resistant mutant (Table 1); type: cell-based, Plasmodium falciparum; details: read-out: IC50 against P. falciparum in vitro, Resistant mutant
[8] = rat, in vivo
P. falciparum Wild Type = assay: Anti-malarial activity against P. falciparum in vitro, wild type (Table 1); type: cell-based, Plasmodium falciparum
P. chabaudi AS [9] = assay: Standard 4-day Peters' test against P. chabaudi AS in mice; type: in vivo, Plasmodium chabaudi; details: s.c. administration, mice (Table 1)
P. chabaudi ASP = assay: Standard 4-day Peters' test against P. chabaudi ASP (pyrimethamine-resistant) in mice; type: in vivo, Plasmodium chabaudi
Experimental: as §1

P. berghei ANKA = assay: Standard 4-day Peters' test against P. berghei ANKA in mice; type: in vivo, Plasmodium berghei; details: oral, lethal non-resistant strain
Experimental: as §1

[10] = Plasmodium falciparum, read-out: IC50-P. falciparum TM4/8.2 (WT), TM4/8.2

T2 sequence (A7UD81 whole entry N51I/C59R/S108N/I164L): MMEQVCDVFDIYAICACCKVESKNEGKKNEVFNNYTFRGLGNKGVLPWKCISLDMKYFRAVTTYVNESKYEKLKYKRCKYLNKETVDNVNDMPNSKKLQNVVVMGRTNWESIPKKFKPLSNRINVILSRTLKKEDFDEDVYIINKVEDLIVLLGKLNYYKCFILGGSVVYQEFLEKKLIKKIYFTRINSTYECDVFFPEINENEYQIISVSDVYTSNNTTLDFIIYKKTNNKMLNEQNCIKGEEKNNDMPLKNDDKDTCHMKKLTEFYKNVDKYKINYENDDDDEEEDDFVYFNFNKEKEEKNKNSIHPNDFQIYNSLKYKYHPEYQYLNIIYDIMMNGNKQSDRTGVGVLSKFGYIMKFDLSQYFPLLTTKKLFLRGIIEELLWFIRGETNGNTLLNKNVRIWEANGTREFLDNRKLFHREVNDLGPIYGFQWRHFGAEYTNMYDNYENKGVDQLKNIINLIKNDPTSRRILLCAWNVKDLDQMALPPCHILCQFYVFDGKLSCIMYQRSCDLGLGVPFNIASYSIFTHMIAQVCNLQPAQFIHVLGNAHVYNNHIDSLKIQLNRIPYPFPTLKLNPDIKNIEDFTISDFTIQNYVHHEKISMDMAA
T1 sequence (A7UD81 1-608): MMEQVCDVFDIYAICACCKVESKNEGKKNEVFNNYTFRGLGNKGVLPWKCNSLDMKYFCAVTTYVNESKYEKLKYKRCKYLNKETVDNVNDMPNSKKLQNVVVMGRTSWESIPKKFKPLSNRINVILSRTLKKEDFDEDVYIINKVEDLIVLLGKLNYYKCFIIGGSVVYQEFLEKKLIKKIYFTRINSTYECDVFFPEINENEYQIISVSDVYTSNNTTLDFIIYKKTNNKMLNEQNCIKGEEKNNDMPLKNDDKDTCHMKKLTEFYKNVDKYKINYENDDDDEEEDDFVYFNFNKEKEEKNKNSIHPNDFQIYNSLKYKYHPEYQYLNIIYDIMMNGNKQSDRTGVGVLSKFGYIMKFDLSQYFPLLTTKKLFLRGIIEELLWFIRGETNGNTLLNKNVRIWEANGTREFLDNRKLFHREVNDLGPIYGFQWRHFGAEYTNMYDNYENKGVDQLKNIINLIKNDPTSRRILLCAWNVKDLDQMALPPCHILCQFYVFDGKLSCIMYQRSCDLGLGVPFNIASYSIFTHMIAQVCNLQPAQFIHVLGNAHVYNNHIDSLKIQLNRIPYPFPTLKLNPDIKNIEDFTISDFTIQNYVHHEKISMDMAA

SMILES | IC50 [2] [nM] | ED50 (P. chabaudi AS [3]) [mg/kg] | ED90 (P. chabaudi AS [3]) [mg/kg] | MIC (S. aureus) [µM] | IC50 [1, 10] [nM] | MIC (E. coli) [µM] | Ki (Pf DHFR WT) [nM] | Ki [5] [nM] | further results
CCN(CC)CCCC(C)Nc1ccnc2cc(Cl)ccc12 (centres unmarked) [Chloroquine, chloroquine, reference compound] | – | – | – | – | – | – | – | – | IC50 ([1]; Plasmodium falciparum, read-out: IC50-P. falciparum TM4/8.2 (WT)): 27 nM
CCc1nc(N)nc(N)c1OCCCOc1ccnc2ccc(F)cc12 [Compound P153, 2,4-diamino-6-ethyl-5-(3-(6-fluoro-quinolin-4-yloxy)propoxy)pyrimidine] | 37 | 0.006 | 0.013 | 10 to 50 (≈ 3.57 to 17.9 µg/mL) | 0.25 ± 0.1 | 10 to 50 (≈ 3.57 to 17.9 µg/mL) | 1.41 ± 0.13 | 3.41 ± 0.27 | Oral BA [4]: 26 % of dose; Vd [4]: 17.3 L/kg; clearance [4]: 69.6 mL/min/kg; half-life [4]: 942 min
CCc1nc(N)nc(N)c1OCCCOc1cc(C)nc2ccccc12 [Compound P154, 2,4-diamino-6-ethyl-5-(3-(2-methylquinolin-4-yloxy)propoxy)pyrimidine] | 94 | 0.006 | 0.043 | > 50 | 2 ± 0.8 | 10 to 50 (≈ 3.53 to 17.7 µg/mL) | 1.29 ± 0.14 | 4.8 ± 0.36 | Oral BA [4]: 9.3 % of dose; Vd [4]: 8.8 L/kg; clearance [4]: 84.1 mL/min/kg; half-life [4]: 192 min
CCc1nc(N)nc(N)c1OCCCOc1cc(C)nc2cc(F)ccc12 [Compound P157, 2,4-diamino-6-ethyl-5-(3-(7-fluoro-2-methylquinolin-4-yloxy)propoxy)pyrimidine] | 100 | 0.008 | 0.012 | > 25 | 2.4 ± 0.7 | > 25 | 1.26 ± 0.24 | 3.95 ± 0.06 | Oral BA [4]: 25.5 % of dose; Vd [4]: 15.2 L/kg; clearance [4]: 74.7 mL/min/kg; half-life [4]: 1060 min
CCc1nc(N)nc(N)c1OCCCOc1cc(C)nc2ccc(OCCCC(=O)O)cc12 [Compound P169, 2,4-diamino-6-ethyl-5-(3-(6-(3-carboxypropoxy)-2-methylquinolin-4-yloxy)propoxy)pyrimidine] | 420 | > 29 | > 29 | – | 0.22 ± 0.06 | – | 0.15 ± 0.04 | 0.36 ± 0.01 | IC50 ([1]; read-out: IC50-P. falciparum TM4/8.2 (WT), TM4/8.2): 0.3 ± 0.1 nM
CCOC(=O)CCc1ccccc1OCCCOc1c(N)nc(N)nc1CC [Compound P195, 2,4-diamino-6-ethyl-5-(3-(2-(2-ethoxycarbonylethyl)phenoxy)propoxy)pyrimidine] | 1250 | 0.21 | 0.69 | – | 2.5 ± 0.7 | – | 0.26 ± 0.02 | 1.88 ± 0.13 | plasma concentrations of the pro-drug P195 ([6]; oral P195 20 mg/kg, all time points, below lower limit of quantitation): < 1.4 nM
CCOC(=O)CCCOc1ccccc1OCCCOc1c(N)nc(N)nc1CC [Compound P217, 2,4-diamino-6-ethyl-5-(3-(2-(3-ethoxycarbonylpropoxy)phenoxy)propoxy)pyrimidine] | 5330 | < 0.63 | < 0.63 | – | 4 | – | 0.69 ± 0.1 | 3.3 ± 0.52 | –
CCc1nc(N)nc(N)c1OCCCOc1ccccc1CCC(=O)O [Compound P218, 2,4-diamino-6-ethyl-5-(3-(2-(2-carboxyethyl)phenoxy)propoxy)pyrimidine] | > 10000 | < 0.63 | < 0.63 | – | 6 | – | 0.43 ± 0.07 | 0.54 ± 0.12 | time plasma concentration of P218 remained above LLQ following oral administration of ester prodrug ([6]; P195 oral 20 mg/kg, mice, LLQ=0.0014 μM): 16 h; time plasma concentrations of P218 remained above LLQ following IV administration ([6]; P218 IV 5 mg/kg, mice, LLQ=0.0014 μM): 7.5 h; bioavailability ([6]; male, Swiss outbred, mouse, plasma, oral, 20 mg/kg): ~50%
CCOC(=O)CCCOc1ccc2nc(C)cc(OCCCOc3c(N)nc(N)nc3CC)c2c1 [Compound P219, 2,4-diamino-6-ethyl-5-(3-(6-(3-ethoxycarbonylpropoxy)-2-methylquinolin-4-yloxy)propoxy)pyrimidine] | – | > 5 | > 5 | – | < 10 | – | 0.52 ± 0.08 | 1.25 ± 0.22 | –
CC1(C)N=C(N)N=C(N)N1c1ccc(Cl)cc1 [Cycloguanil, cycloguanil] | – | – | – | – | – | – | – | – | ED90 P. chabaudi AS, oral (P. chabaudi AS [3]): 6.2 mg/kg; IC50 ([7]; Plasmodium falciparum): > 100 µM; Oral BA in rats [8]: 59.3%; IC50 (P. falciparum Wild Type; Plasmodium falciparum): 37 nM; ED90 P. chabaudi AS, s.c. (P. chabaudi AS [9]): 3.7 mg/kg
C[C@H]1[C@@H](O)O[C@@H]2O[C@@]3(C)CC[C@H]4[C@H](C)CC[C@@H]1[C@@]24OO3 [Dihydroartemisinin, reference compound] | – | – | – | – | – | – | – | – | IC50 ([1]; Plasmodium falciparum, read-out: IC50-P. falciparum TM4/8.2 (WT), TM4/8.2, listed as printed in nM): 1.69 ± 0.39 nM
CCc1nc(N)nc(N)c1-c1ccc(Cl)cc1 [Pyrimethamine, pyrimethamine, reference compound] | – | 0.25 | 0.88 | > 50 | 58 ± 30 | > 50 | – | – | ED50 (P. chabaudi ASP; Plasmodium chabaudi, po, read-out: ED50 P. chabaudi ASP): 1.8 mg/kg; ED90 P. chabaudi ASP (P. chabaudi ASP; oral, pyrimethamine-resistant strain): 13.5 mg/kg; ED50 (P. berghei ANKA; Plasmodium berghei): 0.5 mg/kg; ED90 P. berghei ANKA (P. berghei ANKA): 3.2 mg/kg; ED90 P. chabaudi AS, oral (P. chabaudi AS [3]): 0.88 mg/kg; IC50 ([7]; Plasmodium falciparum): > 100 µM; Oral BA in rats [8]: ~100%; IC50 (P. falciparum Wild Type; Plasmodium falciparum): 79 nM; ED90 P. chabaudi AS, s.c. (P. chabaudi AS [9]): 0.25 mg/kg
COc1cc(Cc2cnc(N)nc2N)cc(OC)c1OC [Trimethoprim, trimethoprim, reference compound] | – | – | – | 1 to 10 (≈ 0.29 to 2.9 µg/mL) | – | 1 to 10 (≈ 0.29 to 2.9 µg/mL) | – | – | –
CC1(C)N=C(N)N=C(N)N1OCCCOc1cc(Cl)c(Cl)cc1Cl [WR99210] | – | – | – | – | – | – | – | – | ED90 P. chabaudi AS, oral (P. chabaudi AS [3]): 74.2 mg/kg; IC50 ([7]; resistant mutant): 0.018 µM; Oral BA in rats [8]: <1%; IC50 (P. falciparum Wild Type; wild type): 0.6 nM; ED90 P. chabaudi AS, s.c. (P. chabaudi AS [9]): 1.1 mg/kg
